Experimental data: PMC5404542, “In Vitro and In Vivo Antifungal Profile of a Novel and Long-Acting Inhaled Azole, PC945, on Aspergillus fumigatus Infection” (Antimicrobial Agents and Chemotherapy, 2017)
Values after ≈ are worked out from the molar mass of the structure shown. Read-outs that look alike come from different tables or passages of the source.

What was measured:
[1] = test system: Aureobasidium pullulans (ATCC 9348); assay: MIC, CLSI; type: cell-based; details: ATCC9348, 1 strain
[2] = test system: A. fumigatus ATCC 204305; assay: MIC with and without BSA supplementation, quality control strain; details: Aspergillus fumigatus
Procedure: Conidia were added across the plate to a final concentration of 1 × 10^5 ml^−1. […] Determination of antifungal activity against 50 A. fumigatus clinical isolates from St. Louis Hospital (Paris, France) was performed with 96-well plates, using the modified EUCAST method in the presence of 0.5% BSA as described above. Antifungal susceptibility testing of 46 A. fumigatus isolates (obtained from the NW England Mycology Reference Centre) was performed by Evotec UK Ltd. (Manchester, United Kingdom) according to EUCAST guidelines.

[3] = test system: Aspergillus terreus (AT49, AT7130); assay: MIC, EUCAST; type: cell-based; details: 2 strains, EUCAST, mean isolate MIC, read-out: MIC
[4] = test system: Cladosporium argillaceum (ATCC 38013); assay: MIC, CLSI; type: cell-based; details: Rhizocladosporium argillaceum, ATCC38013, 1 strain
[5] = test system: Candida albicans (20240.047, ATCC 10231); assay: MIC, CLSI; type: cell-based; details: ATCC10231, 2 strains, CLSI, mean isolate MIC, read-out: MIC (the MIC given is the MIC50)
[6] = test system: Cryptococcus neoformans (ATCC 24067); assay: MIC, CLSI; type: cell-based; details: for MIC: Cryptococcus neoformans, ATCC24067, 1 strain, CLSI, read-out: MIC
[7] = molecular target: T1, AfCYP51A (Aspergillus fumigatus, UniProt Q4WNT5); assay: A. fumigatus CYP51 binding assay (ligand titration, type II difference spectra); parameters: made in house
Procedure: (§1) A. fumigatus CYP51 binding properties were determined as described by Warrilow et al. ([35]). Test agents were titrated against 4 μM recombinant A. fumigatus CYP51A or CYP51B protein, and binding saturation curves were constructed from the change in the absorbance between the spectral peak and the trough. A rearrangement of the Morrison equation was used to determine the dissociation constant (Kd) values when ligand binding was tight ([36]).

[8] = test system: Rhizomucor pusillus (ATCC 16458); assay: MIC, CLSI; type: cell-based; details: ATCC16458, 1 strain
[9] = molecular target: T2, AfCYP51B (Aspergillus fumigatus, UniProt E9QY26); assay: CYP51 reconstitution assay (sterol 14α-demethylase activity); type: biochemical; details: for IC50: 0.5 μM AfCYP51B from membrane fraction of E. coli expression clones; for Ki: suggested from tight-binding inhibition, read-out: Ki.app, CYP51B
T2 construct: made in house; host or cells: Escherichia coli (membrane fraction)
T2 sequence (E9QY26 1-524): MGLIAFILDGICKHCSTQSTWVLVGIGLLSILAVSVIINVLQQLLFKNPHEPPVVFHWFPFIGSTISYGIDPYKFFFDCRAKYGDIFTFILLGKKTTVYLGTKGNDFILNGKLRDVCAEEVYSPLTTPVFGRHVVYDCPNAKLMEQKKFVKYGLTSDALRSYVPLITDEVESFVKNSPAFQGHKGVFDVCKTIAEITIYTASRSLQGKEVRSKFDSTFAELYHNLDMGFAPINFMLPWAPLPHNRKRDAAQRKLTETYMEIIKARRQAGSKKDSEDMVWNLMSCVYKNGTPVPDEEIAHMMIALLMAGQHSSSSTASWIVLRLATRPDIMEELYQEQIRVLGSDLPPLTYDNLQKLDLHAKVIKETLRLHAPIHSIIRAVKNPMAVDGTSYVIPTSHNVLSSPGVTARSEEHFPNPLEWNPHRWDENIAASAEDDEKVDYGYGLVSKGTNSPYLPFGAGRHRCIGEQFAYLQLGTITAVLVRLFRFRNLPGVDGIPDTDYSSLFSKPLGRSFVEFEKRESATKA
Procedure: (§2) A CYP51 reconstitution assay system was used to determine 50% inhibitory concentrations (IC50s) ([37]). Test agent was added to a mixture of 0.5 μM CYP51, 1 μM A. fumigatus cytochrome P450 reductase isoenzyme 1 (AfCPR1), 50 μM eburicol, 4% (wt/vol) 2-hydroxypropyl-β-cyclodextrin, 0.4 mg ml^−1 isocitrate dehydrogenase, 25 mM trisodium isocitrate, 50 mM NaCl, 5 mM MgCl2, and 40 mM 3-(N-morpholino) propanesulfonic acid (MOPS) (pH ∼7.2). The mixtures were then incubated at 37°C for 10 min prior to initiation with 4 mM β-NADPHNa4 followed by shaking for 20 min at 37°C. Sterol metabolites were recovered by extraction with ethyl acetate followed by derivatization with 0.1 ml N,O-bis(trimethylsilyl)trifluoroacetamide:trimethylchlorosilane (99:1) and 0.3 ml anhydrous pyridine prior to analysis by gas chromatography-mass spectrometry.

[10] = molecular target: T1, AfCYP51A; assay: as above; type: biochemical; parameters: made in house; host or cells: Escherichia coli (membrane fraction)
Procedure: as §2

[11] = test system: Mucor circinelloides (ATCC 8542); assay: MIC, CLSI; type: cell-based; details: ATCC8542, 1 strain
[12] = test system: A. fumigatus hyphae (NCPF2010)
Procedure: The persistence of action of test agents was calculated for A. fumigatus hyphae (NCPF2010). […] The plates were incubated for exactly 20 min at 35°C and 5% CO2. After the incubation time had elapsed, all wells on the designated washout plate were aspirated, and growth medium (100 μl/well) was added across the plate. […] Resazurin (0.04%; diluted in growth medium) was added to all wells of both nonwashout and washout plates (5 μl/well) to give a final concentration of 0.002% resazurin. The plates were incubated at 35°C and 5% CO2 for 16 h. […] The percent inhibition for each well was calculated, and the IC50 was calculated from the concentration-response curve generated for each test compound by use of a four-parameter logistic equation (Dotmatics, Bishops Stortford, United Kingdom).

[13] = test system: Gibberella zeae (Fusarium graminearum) (ATCC 16106); assay: microbe, parasite or virus in culture; type: cell-based; details: ATCC16106
[14] = molecular target: T3, AfCYP51B (Aspergillus fumigatus, UniProt E9QY26); assay: A. fumigatus CYP51 binding assay (ligand titration, type II difference spectra); details: for Kd: 4 μM purified AfCYP51B
T3 construct: made in house
Procedure: as §1

[15] = test system: BEAS2B cells infected with A. fumigatus; assay: Persistence of action on bronchial epithelial cells (galactomannan in supernatant); type: cell-based, Aspergillus fumigatus; details: for IC50: Aspergillus fumigatus, BEAS-2B
Procedure: The persistence of action of test agents was evaluated on immortalized bronchial epithelial cells (BEAS2B cells). […] Test and reference articles or undiluted DMSO (as vehicle) (0.5 μl/well) was added to the appropriate wells of the washout plate to give a final concentration of 0.5% DMSO. The plate was incubated for exactly 1 h at 37°C and 5% CO2. After the incubation time had elapsed, all wells on the washout plate were aspirated, and growth medium (100 μl/well) was added across the plate. After 24 h of incubation at 37°C, test and reference articles or undiluted DMSO (as vehicle) (0.5 μl/well) was added to the appropriate wells of the nonwashout plate to give a final concentration of 0.5% DMSO. The plate was incubated for exactly 1 h at 37°C and 5% CO2, after which A. fumigatus conidia were added across both plates to a final concentration of 1 × 10^3/well.

[16] = test system: Cryptococcus gattii (clinical isolate); assay: MIC, EUCAST; type: cell-based; details: 1 strain
[17] = 1 h contact before infection, GM readout after 24 h, read-out: BEAS2B cells IC50, No washout
[18] = 1 h contact, 24-h washout prior to infection, GM readout, read-out: BEAS2B cells IC50, Washout

T1 sequence (Q4WNT5 whole entry): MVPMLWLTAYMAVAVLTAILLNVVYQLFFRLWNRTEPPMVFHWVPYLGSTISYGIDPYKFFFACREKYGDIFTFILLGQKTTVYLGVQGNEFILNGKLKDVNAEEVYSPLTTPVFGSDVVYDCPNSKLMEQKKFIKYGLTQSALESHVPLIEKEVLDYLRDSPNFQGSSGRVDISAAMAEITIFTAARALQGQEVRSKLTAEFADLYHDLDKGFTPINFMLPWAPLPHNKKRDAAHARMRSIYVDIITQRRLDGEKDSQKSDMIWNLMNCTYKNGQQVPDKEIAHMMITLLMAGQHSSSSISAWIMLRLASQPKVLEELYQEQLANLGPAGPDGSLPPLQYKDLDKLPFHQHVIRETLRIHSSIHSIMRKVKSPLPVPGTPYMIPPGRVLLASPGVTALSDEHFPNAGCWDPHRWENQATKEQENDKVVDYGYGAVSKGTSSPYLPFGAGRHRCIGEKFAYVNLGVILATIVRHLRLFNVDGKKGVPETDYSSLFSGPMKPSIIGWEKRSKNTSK

Structure (SMILES) | MIC [1] | MIC ([2]; ATCC204305, with BSA) | MIC ([2]; ATCC204305, without BSA) | MIC [3] | MIC [4] | MIC50 [5] | MIC [6] | Kd [7] | MIC [8] | IC50 [9] | Ki [9] | IC50 [10] | Ki [10] | MIC [11] | IC50 [12] | MIC [13] | IC50 [15, 17] | IC50 [15, 18] | MIC [16] | further results
Cc1cc(N2CCN(c3ccc(C(=O)Nc4ccc(F)cc4)cc3)CC2)ccc1OC[C@@H]1CO[C@@](Cn2cncn2)(c2ccc(F)cc2F)C1 [PC945, 4-[4-(4-{[(3R,5R)-5-(2,4-difluorophenyl)-5-(1H-1,2,4-triazol-1-ylmethyl)oxolan-3-yl]methoxy}-3-methylphenyl)piperazin-1-yl]-N-(4-fluorophenyl)benzamide] | > 8000 ng/mL | 62.5 ng/mL (≈ 0.0915 µM) | 250 ng/mL (≈ 0.366 µM) | 78 ng/mL (≈ 0.114 µM) | > 8000 ng/mL | 81 ng/mL (≈ 0.119 µM) | 8 ng/mL (≈ 0.0117 µM) | 0.5 µM | > 8000 ng/mL | 0.22 µM | < 0.001 µM | 0.23 µM | < 0.001 µM | > 8000 ng/mL | 0.086 ng/mL (≈ 0.000126 µM) | > 8000 ng/mL | 3.7 ng/mL (≈ 0.00542 µM) | 43 ng/mL (≈ 0.063 µM) | 250 ng/mL (≈ 0.366 µM) | fold more potent than both voriconazole and posaconazole ([6]; C. neoformans): 2 fold; difference spectra on titration against purified CYP51A [7]: type II difference spectra; difference spectra on titration against purified CYP51B [14]: type II difference spectra; Kd ([14]; Kd2, AfCYP51B, modified two-site allosteric model): 0.32 µM
CC[C@@H]([C@H](C)O)n1ncn(-c2ccc(N3CCN(c4ccc(OC[C@@H]5CO[C@@](Cn6cncn6)(c6ccc(F)cc6F)C5)cc4)CC3)cc2)c1=O [Posaconazole, posaconazole] | 1000 ng/mL (≈ 1.43 µM) | 60 ng/mL (≈ 0.0856 µM) | 30 ng/mL (≈ 0.0428 µM) | 93 ng/mL (≈ 0.133 µM) | 250 ng/mL (≈ 0.357 µM) | 81 ng/mL (≈ 0.116 µM) | 16 ng/mL (≈ 0.0228 µM) | 0.96 µM | > 8000 ng/mL | 0.17 µM | < 0.001 µM | 0.16 µM | < 0.001 µM | > 8000 ng/mL | 2.2 ng/mL (≈ 0.00314 µM) | > 8000 ng/mL | 3.1 ng/mL (≈ 0.00442 µM) | 46 ng/mL (≈ 0.0656 µM) | 500 ng/mL (≈ 0.713 µM) | Kd ([14]; Kd1, AfCYP51B, PC945: modified two-site allosteric model, posaconazole: single tight-binding Kd): 0.012 µM; BEAS2B cells Fold change ([15]; washout versus no washout): 14.7 fold
